Non-standard residues stand in square brackets, D forms with d. No end group written: not given here.
Key:
KM12SM cells [1] = assay: MTT proliferation assay; format: cell-based, human; conditions: with IL-13, peptide 1 μg/ml, 48 h
Procedure: (§1) Recombinant human IL13 was used at […] (13) and was purchased from PeproTech. IL13Rα2-derived peptides (IL13Rα2D1: GSETWKTIITKN, SEQ ID NO: 3; IL13Rα2D1S: WKTIITKN, SEQ ID NO: 1; IL13Rα2Nter: FEIVDPGY, SEQ ID NO: 14; IL13Rα2Cter WSIPLGPI, SEQ ID NO: 15; IL13Rα2D1S-1A: WATIITKN, SEQ ID NO: 16; IL13Rα2D1S-2A WKAIITKN, SEQ ID NO: 17; IL13Rα2D1S-3A WKTAITKN, SEQ ID NO: 18; IL13Rα2D1S-4A WKTIATKN, SEQ ID NO: 19; IL13Rα2D1S-5A WKTIIAKN, SEQ ID NO: 20; IL13Rα2D1S-6A WKTIITAN, SEQ ID NO: 21) were synthesized using solid phase chemistry with a Focus XC instrument (AAPPtec). The enantio version D-IL13Rα2D1 (D-D1) peptide (GSETWKTIITKN, SEQ ID NO: 3) composed entirely by D-amino acids was purchased from Proteogenix (Schiltigheim, France). […]
(§2) Binding of D1 peptide to IL-13 was monitored by surface plasmon resonance on a BIAcore 3000 instrument (BIAcore Inc, Switzerland). […] The interaction between D1 peptide and the immobilized IL13 was determined by changes in the RU at different D1 concentrations. […] Cell proliferation was determined by absorbance at 560 nm and comparison with control cells collected ab initium. […] Bound cells were lysed with 1% SDS in PBS, and the extent of the adhesion was quantified using a fluorescence analyzer (POLARstar Galaxy, BMG Labtechnologies). […] Effective migration speed was calculated from the distance covered by cells in 24 h in each side of the wound. […]

[2] = system: U251 glioblastoma xenografts; assay: Glioblastoma xenograft tumour growth; format: in vivo, mice; conditions: 3 μg/100 μL PBS subcutaneously, 7 doses during 15 days, start at 100 mm^3; p<0.01 vs control
Procedure: (§3) FIG. 6. D1 and D-D1 peptides increase the survival of mice inoculated with metastatic tumor cells and inhibits glioblastoma xenografts. (A) Liver homing experiment. Metastatic KM12SM cells were treated with the IL13 and/or D1 peptide and inoculated in spleen of nude mice. […] (C) 10^7 U251 cells were inoculated subcutaneously into the flanks of mice. Eleven days after cell inoculation, when tumours reached a size of 100 mm^3, mice were treated with D-D1 peptide (3 μg/100 μL of PBS) subcutaneously or with saline solution in a total of 7 doses during 15 days. Tumours were measured every 2-3 days. **p<0.01 vs control.
Additionally, the capacity of the D-D1 peptide to inhibit tumour growth in U251 glioblastoma xenografts was tested. For glioblastoma xenografts, 10^7 U251 cells were inoculated subcutaneously into the flanks of mice. Eleven days after cell inoculation, when tumours reached a size of 100 mm^3, mice were treated with D-D1 peptide (3 μg/100 μL of PBS) subcutaneously or with saline solution in a total of 7 doses during 15 days. Tumours were measured every 2-3 days.

KM12SM cells [3] = assay: Cell invasion assay through Matrigel; format: cell-based, human; conditions: with IL-13, peptide 1 μg/ml, 48 h
Procedure: as §1, §2

KM12SM cells [4] = assay: Metastasis experiment in nude mice, Kaplan-Meier survival after intrasplenic inoculation; format: in vivo, Swiss nude mice
Procedure: as §3
Binding of D1 peptide to IL-13 was monitored by surface plasmon resonance on a BIAcore 3000 instrument (BIAcore Inc, Switzerland). IL-13 was covalently amino coupled to a CM-5 sensor chip. An immobilization level of 7700 RU was obtained. A nonderivatized flow cell was used as a control. The interaction between D1 peptide and the immobilized IL13 was determined by changes in the RU at different D1 concentrations. Cell Signaling Analysis Cancer cells were incubated 3 h in DMEM without serum, detached with 2 mM EDTA, washed and treated with IL-13 (PeproTech) (10 ng/ml) for different times in presence or absence of IL13Rα2D1 peptide. Then, cells were lysed with lysis buffer (1% Igepal, 50 mM Tris-HCl, 100 mM NaCl, 2 mM MgCl2, 10% glycerol, protease inhibitors (Complete Mini, Roche) and phosphatase inhibitor cocktails 2 and 3 (Sigma-Aldrich)). Protein extracts (60 μg) were separated in SDS-PAGE and transferred to nitrocellulose membranes, which were incubated with primary antibodies, washed and incubated with HRP-conjugated secondary antibodies (Sigma-Aldrich). […] Proliferation Assays Cancer cells were seeded at 1×10^4 cells/well on 96-well plates and were incubated for 48 h at 37° C. in DMEM with 0.5% serum in presence of IL-13 (10 ng/ml) and the indicated peptides, followed by 1 h incubation with Thyazolyl Blue Tretrazolium Bromide (MTT) (0.6 mg/mL) (Sigma-Aldrich). Cell proliferation was determined by absorbance at 560 nm and comparison with control cells collected ab initium. Cell Adhesion Assays Cancer cells were starved for 3 h, labeled with BCECF-AM (Molecular Probes), detached with EDTA/PBS and incubated in DMEM in the presence of IL-13 and the indicated peptides for 10 min at 37° C. Then, 6×10^4 cells in 100 μL were added to 96-well plates previously coated with Matrigel (0.4 μg/mm^2), and the plates were incubated for 25 min at 37° C. Subsequently, non-adhered cells were removed by three washes with DMEM. Bound cells were lysed with 1% SDS in PBS, and the extent of the adhesion was quantified using a fluorescence analyzer (POLARstar Galaxy, BMG Labtechnologies). Wound Healing Assays Cancer cells were cultured to confluence in Matrigel-coated plates (0.4 μg/mm^2), and a 1 mm-wide wound was done across the monolayer, which was incubated in serum-free medium alone or with IL-13 (10 ng/mL), in the presence or absence of the indicated peptides. Pictures were taken immediately and after 24 h culture at 37° C. after the injury. Effective migration speed was calculated from the distance covered by cells in 24 h in each side of the wound. Invasion Assays For Matrigel invasion assays, 6×10^4 cells were loaded onto […] pore-size filters coated with […] of Matrigel (1:3 dilution; BD Biosciences) in Transwell plates (Costar) in presence of the indicated peptides. The lower compartment of the invasion chamber was filled with IL-13 (10 ng/mL). After 48 h, non-invading cells were removed from the upper surface of the filter, and cells that migrated through the filter were fixed with 4% paraformaldehyde (Sigma-Aldrich), stained with crystal violet and counted under a microscope. […] Swiss nude mice (Charles River) (n=5 per condition) were inoculated in the spleen with 1.5×10^6 KM12SM cells in 0.1 mL PBS in presence or absence of the indicated peptides (1 μg/mL). A day after inoculation, mice were subjected to removal of the spleen. […]

KM12SM cells [5] = assay: Cell adhesion assay to Matrigel; format: cell-based, human; conditions: with IL-13, peptide 1 μg/ml
Procedure: as §1, §2

With “GSETWKTIITKN (G[dS][dE][dT][dW][dK][dT][dI][dI][dT][dK][dN]) [D-D1 peptide]” the “Inhibition of IL-13-stimulated cell proliferation (MTT)” value (KM12SM cells [1]) was “inhibit cell adhesion, invasion and proliferation”, the “Tumour growth of U251 xenografts” value [2] was “significant growth arrest accompanied by a regression in the tumour size” and the “Inhibition of IL-13-stimulated cell invasion through Matrigel” value (KM12SM cells [3]) was “inhibit cell adhesion, invasion and proliferation”. For the same sequence, the “Mice surviving the experimental endpoint, without further treatment” value (KM12SM cells [4]; KM12SM intrasplenic, cells with peptide 1 μg/ml only, n=5 per condition) was “one”, the “Metastatic lesions in surviving mice, without further treatment” value (KM12SM cells [4]; KM12SM intrasplenic, cells with peptide only) was “without lesions” and the “Mice surviving the experimental endpoint, with peptide treatment” value (KM12SM cells [4]; KM12SM intrasplenic, cells with peptide plus 7 i.v. doses of 3 μg, n=5 per condition) was “two”. For the same sequence, the “Metastatic lesions at necropsy in surviving mice, with peptide treatment” value (KM12SM cells [4]; KM12SM intrasplenic, cells with peptide plus i.v. treatment) was “no metastatic lesions at the necropsy”, the “Mouse survival, cells inoculated with peptide plus intravenous peptide treatment” value (KM12SM cells [4]; KM12SM intrasplenic, peptide 1 μg/ml with the cells, then 7 i.v. doses of 3 μg over 2 weeks, n=5) was “remarkable increase in survival” and the “Mouse survival, cells inoculated with peptide, without further treatment” value (KM12SM cells [4]; KM12SM intrasplenic, peptide 1 μg/ml with the cells, n=5) was “significant increase”. The “Change of survival of treated mice” value (KM12SM cells [4]; KM12SM metastasis model, treated mice versus control) was “more than doubling the survival” and the “Inhibition of IL-13-stimulated cell adhesion to Matrigel” value (KM12SM cells [5]) was “inhibit cell adhesion, invasion and proliferation”.

Reference: patent US11472862B2, “IL13Rα2 peptide and its uses” (priority 2017, dated 2022)
